Reference: patent publication US20240269238A1, “Therapeutic Regimens and Methods for Reducing Body Weight in a Subject with Fatty Liver Disease using a GLP-1R and GCGR Agonist” (Spitfire Pharma LLC, priority 2022, published 2024)

Legend:
[1] = system: liver fat content; assay: Phase 1b 24-week NAFLD study (Example 3): liver fat content and liver volume by MRI-PDFF; type: in vivo, human
Description: Provided herein is disclosure of a 12-week extension study of the study provided in Example 1, providing a 24-week a Phase 1b, randomized, double-blind, placebo-controlled study to assess the effects of pemvidutide (also termed herein as ALT-801), the safety of pemvidutide and effects on weight loss, hepatic fat fraction, anthropometric parameters, lipid metabolism, as well as inflammatory, fibrosis and other markers in diabetic and non-diabetic (type 2 diabetes) overweight and obese (BMI≥28.0 kg/m^2) subjects with NAFLD (defined as liver fat content (LFC) by MRI-PDFF ≥10%; absence of significant fibrosis, defined as FibroScan® LSM ≤10 kPa), alanine aminotransferase (ALT) and aspartate aminotransferase (AST) laboratory values of ≤75 IU/L and HbA1c <9.5. Men and women aged 18-65 years were studied. Diabetic subjects were defined as those that have undergone stable dose (≥3 months) metformin or SLGT-2 therapy and no use of insulin, sulfonylureas, DPP-4, GLP-1 treatment; Ninety-four (94) subjects were enrolled in the initial 12-week Phase 1b NAFLD trial and 83 subjects who completed were invited to receive a total of 12 additional weeks of blinded treatment. Of those subjects, 66 consented to rollover, of which 64 were eligible to participate.
The primary endpoint of this study was a reduction in liver fat content (LFC) by MRI-PDFF at Week 24 compared to Week 0 (zero). Key secondary endpoints include percent (%) weight loss at Week 24 compared to Week 0 (zero), and liver inflammation by alanine aminotransferase (ALT) levels and corrected T1 (cT1) imaging at Week 24 as compared to Week 0 (zero). Adverse events (AEs), including serious and severe AEs, AEs leading to discontinuation, GI tolerability, vital signs, and glycemic control including fasting glucose and HbA1c levels were also measured.

[2] = Phase 1 12-week study in overweight/obese subjects (NCT0456124, Example 2): key pharmacodynamic endpoints; type: in vivo, human
Method: To test the lipid-lowering effects of pemvidutide, an analysis of Phase I clinical trial (NCT0456124) data was carried out. The subjects with overweight/obesity (BMI 25-40 kg/m^2) were randomized at 1 site in Australia (NCT0456124). Subjects were randomized 4:1 pemvidutide:placebo, with placebos pooled. […] Lipoprotein and glycoprotein profiling covering 33 lipoprotein related parameters was performed by ^1H-NMR on fasting plasma samples obtained at Day −1 (baseline), Day 43, and Day 84 from the 34 subjects who completed NCT0456124. Lipidomic profiling covering 600 lipid species was performed by ultra-high performance liquid chromatography-mass spectrometry on fasting plasma samples obtained at Day −1 (baseline), Day 43, and Day 84 from the 34 subjects who completed NCT0456124. For the lipid profiling, plasma fractionation was performed either using methanol to extract fatty acyls, bile acids, steroids, and lyso-glycerophospholipids, or using a chloroform/methanol mix to extract glycerolipids, cholesteryl esters, sphingolipids, and glycerophospholipids. Lipid classification followed the classification system proposed by Fahy et al. (J. Lipid Res. 2005; 46:839-861) and the LIPID MAPS initiative (http://www.lipidmaps.org) (see FIG. 8).

Structure (SMILES): CC[C@H](C)[C@H](NC(=O)[C@H](Cc1ccccc1)NC(=O)[C@H](CCC(=O)O)NC(=O)[C@@H]1CCCCNC(=O)CC[C@H](NC(=O)[C@H](CC(=O)O)NC(=O)[C@H](CC(C)C)NC(=O)[C@H](Cc2ccc(O)cc2)NC(=O)[C@H](CCCCN)NC(=O)[C@H](CO)NC(=O)[C@H](Cc2ccc(O)cc2)NC(=O)[C@H](CC(=O)O)NC(=O)[C@H](CO)NC(=O)[C@@H](NC(=O)[C@H](Cc2ccccc2)NC(=O)[C@@H](NC(=O)CNC(=O)[C@H](CCC(N)=O)NC(=O)C(C)(C)NC(=O)[C@@H](N)Cc2c[nH]cn2)[C@@H](C)O)[C@H](C)O)C(=O)N[C@@H](CCCCNC(=O)C2O[C@@H](OCCCCCCCCCCCCCCCCCC(=O)O)C(O)C(O)[C@@H]2O)C(=O)N[C@@H](C)C(=O)N[C@@H](C)C(=O)N1)C(=O)N[C@@H](CCC(N)=O)C(=O)N[C@@H](Cc1c[nH]c2ccccc12)C(=O)N[C@@H](CC(C)C)C(=O)N[C@@H](CC(C)C)C(=O)N[C@@H](CCC(N)=O)C(=O)N[C@H](C(N)=O)[C@@H](C)O (stereo partly shown) [ALT-801, Pemvidutide]
- mean absolute reduction in liver fat (MRI-PDFF) ([1]; 1.2 mg per week, week 24): 11.2%
- mean relative reduction in liver fat (MRI-PDFF) ([1]; 1.2 mg per week, week 24): 56.3%
- liver fat of an exemplary subject (MRI-PDFF) ([1]; 1.8 mg dose, Week 24, 32.3% at baseline): 1.7%
- mean absolute reduction in liver fat (MRI-PDFF) ([1]; 1.8 mg per week, week 24): 17%
- mean relative reduction in liver fat (MRI-PDFF) ([1]; 1.8 mg per week, week 24): 75.2%
- proportion of subjects with normalization (<=5%) in liver fat content ([1]; 1.8 mg, week 24): 53.8%
- mean absolute reduction in liver fat (MRI-PDFF) ([1]; 2.4 mg per week, week 24): 15.6%
- mean relative reduction in liver fat (MRI-PDFF) ([1]; 2.4 mg per week, week 24): 76.4%
- proportion of subjects with normalization (<=5%) in liver fat content ([1]; 2.4 mg, week 24): 45.3%
- relative liver fat reductions (study conclusion) ([1]; 24 weeks): greater than 75%
- liver volume (MRI-PDFF) ([1]; all doses, week 24): robust reduction in liver volume
- percentage of subjects achieving at least 30% and 50% reduction in liver fat content vs placebo ([1]; all doses, week 24): highly significant
- Apoprotein B, change from baseline, mean ([2]; 1.2 mg weekly, 12 weeks): −45.4%
- BMI, change from baseline, mean ([2]; 1.2 mg weekly, 12 weeks): −4.8%
- Diastolic BP, change from baseline, mean ([2]; 1.2 mg weekly, 12 weeks): −4.7%
- HDL cholesterol, change from baseline, mean ([2]; 1.2 mg weekly, 12 weeks): −16.7%
- LDL cholesterol, change from baseline, mean ([2]; 1.2 mg weekly, 12 weeks): −18.4%
- Systolic BP, change from baseline, mean ([2]; 1.2 mg weekly, 12 weeks): −10.2%
- Total cholesterol, change from baseline, mean ([2]; 1.2 mg weekly, 12 weeks): −20.0%
- Triglycerides, change from baseline, mean ([2]; 1.2 mg weekly, 12 weeks): −37.0%
- Weight loss, change from baseline, mean ([2]; 1.2 mg weekly, 12 weeks (n = 7)): −4.9%
- mean body weight loss, placebo adjusted ([2]; 1.8 mg dose level, 12 weeks): 8.7%
- mean body weight loss ([2]; 1.8 mg dose level, 12 weeks of weekly treatment): 10.3%
- subjects achieving at least 10% body weight loss ([2]; 1.8 mg group, week 12): over half
- subjects losing at least 5% of body weight ([2]; 1.8 mg group, week 12): all subjects lost at least 5% of their body weight
- Apoprotein B, change from baseline, mean ([2]; 1.8 mg weekly, 12 weeks): −23.4%
- BMI, change from baseline, mean ([2]; 1.8 mg weekly, 12 weeks): −10.4%
- Diastolic BP, change from baseline, mean ([2]; 1.8 mg weekly, 12 weeks): −7.1%
- HDL cholesterol, change from baseline, mean ([2]; 1.8 mg weekly, 12 weeks): −30.3%
- LDL cholesterol, change from baseline, mean ([2]; 1.8 mg weekly, 12 weeks): −25.6%
- Systolic BP, change from baseline, mean ([2]; 1.8 mg weekly, 12 weeks): −12.5%
- Total cholesterol, change from baseline, mean ([2]; 1.8 mg weekly, 12 weeks): −28.0%
- Triglycerides, change from baseline, mean ([2]; 1.8 mg weekly, 12 weeks): −37.9%
- Weight loss, change from baseline, mean ([2]; 1.8 mg weekly, 12 weeks (n = 9)): −10.3%
- Apoprotein B, change from baseline, mean ([2]; 2.4 mg weekly, 12 weeks): −16.8%
- BMI, change from baseline, mean ([2]; 2.4 mg weekly, 12 weeks): −7.0%
- Diastolic BP, change from baseline, mean ([2]; 2.4 mg weekly, 12 weeks): −6.0%
- HDL cholesterol, change from baseline, mean ([2]; 2.4 mg weekly, 12 weeks): −36.0%
- LDL cholesterol, change from baseline, mean ([2]; 2.4 mg weekly, 12 weeks): −23.9%
- Systolic BP, change from baseline, mean ([2]; 2.4 mg weekly, 12 weeks): −17.4%
- Total cholesterol, change from baseline, mean ([2]; 2.4 mg weekly, 12 weeks): −27.7%
- Triglycerides, change from baseline, mean ([2]; 2.4 mg weekly, 12 weeks): −29.2%
- Weight loss, change from baseline, mean ([2]; 2.4 mg weekly, 12 weeks (n = 11)): −9.0%
